The values below come from ChEMBL document CHEMBL4840381, “BRD9 Bifunctional Degraders for Treating Cancer” (ACS Med Chem Lett, 2021).

The target of the experiment is Protein cereblon/Bromodomain-containing protein 9 (Homo sapiens, UniProt Q9H8M2+Q96SW2). The experiment is described as follows: Induction of CRBN-mediated GFP-fused BRD9 (unknown origin) degradation expressed in HEK293-A cells incubated for 24 hrs by flow cytometric analysis. Format: cell-based. In general terms: A flow cytometer gives signals particle by particle.

The DC50 is the midpoint of the concentration-degradation curve. Read a high DC50 as degradation only at high concentration.

Sequence of Protein cereblon/Bromodomain-containing protein 9 (Q9H8M2 whole entry, the tested form may be a part): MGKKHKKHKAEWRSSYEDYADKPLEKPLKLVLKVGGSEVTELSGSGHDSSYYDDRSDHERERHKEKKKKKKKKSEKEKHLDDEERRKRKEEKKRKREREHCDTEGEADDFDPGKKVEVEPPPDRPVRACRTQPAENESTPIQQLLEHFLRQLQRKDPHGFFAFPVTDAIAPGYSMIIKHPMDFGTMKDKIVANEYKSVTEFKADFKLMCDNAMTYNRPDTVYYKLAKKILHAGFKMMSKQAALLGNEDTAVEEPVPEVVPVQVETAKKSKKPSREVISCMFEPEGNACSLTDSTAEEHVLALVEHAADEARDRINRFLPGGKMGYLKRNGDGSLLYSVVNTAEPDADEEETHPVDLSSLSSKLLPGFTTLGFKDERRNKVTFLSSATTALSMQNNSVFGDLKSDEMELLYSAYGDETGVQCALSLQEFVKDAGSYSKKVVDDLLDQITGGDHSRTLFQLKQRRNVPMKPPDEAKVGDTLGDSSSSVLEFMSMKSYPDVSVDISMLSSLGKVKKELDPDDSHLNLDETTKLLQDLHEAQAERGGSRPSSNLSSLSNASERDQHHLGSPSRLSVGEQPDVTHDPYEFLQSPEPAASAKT
Sequence of Protein cereblon/Bromodomain-containing protein 9 (Q96SW2 whole entry, the tested form may be a part): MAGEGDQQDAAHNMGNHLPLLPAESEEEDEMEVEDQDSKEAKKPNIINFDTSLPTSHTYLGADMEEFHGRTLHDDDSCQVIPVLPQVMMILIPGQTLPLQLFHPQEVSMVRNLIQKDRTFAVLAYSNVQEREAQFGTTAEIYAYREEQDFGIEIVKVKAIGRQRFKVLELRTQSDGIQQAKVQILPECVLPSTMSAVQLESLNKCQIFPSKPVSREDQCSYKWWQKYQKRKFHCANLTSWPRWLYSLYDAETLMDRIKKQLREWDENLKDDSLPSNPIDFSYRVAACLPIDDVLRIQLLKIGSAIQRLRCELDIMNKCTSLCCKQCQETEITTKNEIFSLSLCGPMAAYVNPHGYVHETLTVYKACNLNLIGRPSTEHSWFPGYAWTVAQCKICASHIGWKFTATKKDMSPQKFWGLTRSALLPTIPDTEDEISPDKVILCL

With `COc1cc(-c2cn(C)c(=O)c3cnccc23)cc(OC)c1CCN1CCC(OC2CCN(C(=O)c3ccc(Cl)c(N4CCC(=O)NC4=O)c3)CC2)CC1`, half-maximal degradation (DC50) was put at 1 nM.
In the case of `CCCCn1cc(-c2ccc(OC3CCN(CC4CCN(C(=O)c5ccc(Cl)c(N6CCC(=O)NC6=O)c5)CC4)CC3)c(OC)c2)c2ccncc2c1=O`, the DC50 was 1 nM.
The figure for `CCCCn1cc(-c2cc(OC)c(OC3CCN(CC4CCN(C(=O)c5ccc(Cl)c(N6CCC(=O)NC6=O)c5)CC4)CC3)c(OC)c2)c2ccncc2c1=O` is 1 nM; for `COc1cc(-c2cn(C)c(=O)c(C)c2C)cc(OC)c1CCN1CCC(OC2CCN(C(=O)c3ccc(Cl)c(N4CCC(=O)NC4=O)c3)CC2)CC1` it is 1 nM.
The figure for `CCCCn1cc(-c2ccc(O[C@H]3CCN(CC4CCN(C(=O)c5ccc(OC)c(N6CCC(=O)NC6=O)c5)CC4)C[C@@H]3F)c(OC)c2)c2ccncc2c1=O` is 1 nM; for `CCCCn1cc(-c2cc(F)c(O[C@H]3CCN(CC4CCN(C(=O)c5ccc(OC)c(N6CCC(=O)NC6=O)c5)CC4)C[C@@H]3F)c(F)c2)c2ccncc2c1=O` it is 1 nM.
